From US20060063782A1, “3-Hetero arylmethoxy ! pyridines and their analogues as p38 map kinase inhibitors” (priority 2002, published 2006)

molecular target: p38 MAP kinase (Homo sapiens, UniProt Q16539); experiment: p38 MAP Kinase Assay (33P incorporation into myelin basic protein, filter plate); format: biochemical; details: Table 1; MKK6-activated p38, MBP substrate, 50 minutes
Protocol: The activated p38 is then diluted 1:6 with assay buffer, and 20 μl mixed with 25 μl of MBP mix (300 μl 10×strength assay buffer, 300 μl of 10 mM DTT & 10 mM sodium orthovanadate, 1.7 ml H2O, 50 μCi γ^33P-ATP, 200 μl of myelin basic protein (MBP) (5 mg/ml)) and added to 96 well plates along with 5 μl of various dilutions of the test compound in DMSO (up to 10%). The reaction is allowed to proceed for 50 minutes before being stopped with an excess of ortho-phosphoric acid (30 μl at 2%).
γ^33P-ATP which remains unincorporated into the myelin basic protein is separated from phosphorylated MBP on a Millipore MAPH filter plate. The wells of the MAPH plate are wetted with 0.5% orthophosphoric acid, and then the results of the reaction are filtered with a Millipore vacuum filtration unit through the wells. Following filtration, the residue is washed twice with 200 μl of 0.5% orthophosphoric acid. Once the filters have dried, 25 μl of Microscint 20 scintillant is added, and then counted on a Packard Topcount for 30 seconds.

Sequence of p38 MAP kinase (Q16539 whole entry): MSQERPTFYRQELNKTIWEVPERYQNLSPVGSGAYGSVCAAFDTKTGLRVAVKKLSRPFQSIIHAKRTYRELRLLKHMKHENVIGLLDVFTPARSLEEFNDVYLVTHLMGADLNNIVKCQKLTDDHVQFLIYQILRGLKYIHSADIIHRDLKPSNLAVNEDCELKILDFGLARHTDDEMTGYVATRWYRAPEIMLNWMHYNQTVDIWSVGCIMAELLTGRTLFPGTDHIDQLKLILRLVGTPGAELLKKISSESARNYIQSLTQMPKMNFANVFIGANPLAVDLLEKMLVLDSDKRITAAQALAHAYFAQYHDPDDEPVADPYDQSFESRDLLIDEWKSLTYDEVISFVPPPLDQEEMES

IC50	SMILES
< 1000 µM	Nc1ncccc1OCc1cccc(C(=O)NCc2cccc3ccccc23)c1 [Compound 33]
< 1000 µM	Nc1ncccc1OCc1ccc(F)cc1Cl [Compound 31]
< 200 µM	O=C(Nc1ccc(Cl)c(COc2cccnc2)c1)c1ccncc1 [Compound 53, N-[4-Chloro-3-(pyridin-3-yloxymethyl)-phenyl]-isonicotinamide]
< 1000 µM	Nc1ncccc1OCc1csc2ccccc12 [Compound 40]
< 200 µM	Nc1ncccc1OCc1cccc(-c2ccccc2)c1 [Compound 20]
< 200 µM	O=C(Nc1ccc(Cl)c(COc2cccnc2)c1)c1cccc(F)c1 [Compound 50, N-[4-Chloro-3-(pyridin-3-yloxymethyl)-phenyl]-3-fluoro-benzamide]
< 1000 µM	c1cc(COc2cccnc2)cc(COc2cccnc2)c1 [Compound 58]
< 2 µM	O=C(Nc1ccc(F)c(COc2cccnc2)c1)c1cc(F)cc(N2CCOCC2)c1 [Compound 62, 3-Fluoro-N-[4-fluoro-3-(pyridin-3-yloxymethyl)-phenyl]-5-morpholin-4-yl-benzamide]
< 1000 µM	Nc1ccc(Cl)c(COc2cccnc2)c1 [Compound 41]
< 200 µM	Cc1cc(C)cc(COc2cccnc2N)c1 [Compound 19]
< 1000 µM	c1cncc(OCc2cccc3ccccc23)c1 [Compound 11, 3-(1-Naphthylmethyloxy)pyridine]
< 100 µM	Cc1ccc2ccccc2c1COc1cccnc1N [Compound 30]
< 1000 µM	Nc1ncccc1OCc1ccc(F)cc1F [Compound 13, 2-amino-3-(2,4-difluorobenzyloxy)pyridine]
< 1000 µM	O=C1c2ccccc2C(=O)N1c1ccc(Cl)c(COc2cccnc2)c1 [Compound 68, 2-[4-Chloro-3-(pyridin-3-yloxymethyl)-phenyl]-isoindole-1,3-dione]
< 1000 µM	Nc1ncccc1OCc1cc2c(cc1Cl)OCO2 [Compound 18, 2-amino-3-(2-chloro-4,5-(methylenedioxy)benzyloxy)pyridine]
< 20 µM	O=C(Nc1cccc(COc2cccnc2)c1)c1cc(F)cc(N2CCOCC2)c1 [Compound 67, 3-Fluoro-5-morpholin-4-yl-N-[3-(pyridin-3-yloxymethyl)-phenyl]-benzamide]
< 100 µM	Nc1ncccc1OCc1ccccc1C(F)(F)F [Compound 23]
< 1000 µM	Nc1ncccc1OCc1cccc(Cl)c1F [Compound 27]
< 20 µM	CC(C)(C)c1ccccc1NC(=O)Nc1ccc(F)c(COc2cccnc2)c1 [Compound 78, 1-(2-tert-Butyl-phenyl)-3-[4-fluoro-3-(pyridin-3-yloxymethyl)-phenyl]-urea]

same assay, conditions: Table 2; MKK6-activated p38, MBP substrate, 50 minutes

IC50	SMILES
< 2 µM	CC(C)(C)c1cc(NC(=O)Nc2ccc(F)c(COc3cnccn3)c2)n(Cc2ccccc2)n1 [Compound 153, 1-(2-Benzyl-5-tert-butyl-2H-pyrazol-3-yl)-3-[4-fluoro-3-(pyrazin-2-yloxymethyl)-phenyl]-urea]
< 20 µM	O=C(Cn1ccnc1)Nc1cnc(OCc2c(Cl)cccc2Cl)cn1 [Compound 174]
< 2 µM	O=C(Nc1ccc(F)c(COc2cnccn2)c1)Nc1nnc(Cc2ccccc2)s1 [Compound 121, 1-(5-Benzyl-[1,3,4]thiadiazol-2-yl)-3-[4-fluoro-3-(pyrazin-2-yloxymethyl)-phenyl]-urea]
< 1000 µM	Clc1cnc(OCc2c(Cl)cccc2Cl)cn1 [Compound 88]
< 2 µM	CC(CO)(CO)NC(=O)c1cnc(OCc2c(Cl)cccc2Cl)cn1 [Compound 137, 5-(2,6-Dichloro-benzyloxy)-pyrazine-2-carboxylic acid (2-hydroxy-1-hydroxymethyl-1-methyl-ethyl)-amide]
< 2 µM	CC(C)(C)c1cccc(C(=O)Nc2ccc(F)c(COc3cnccn3)c2)c1 [Compound 103, 3-tert-Butyl-N-[4-fluoro-3-(pyrazin-2-yloxymethyl)-phenyl]-benzamide]
< 2 µM	CC(C)(CO)NC(=O)Nc1cnc(OCc2c(Cl)cccc2Cl)cn1 [Compound 176]
< 200 µM	CN1CCC(CC(=O)Nc2cnc(OCc3c(Cl)cccc3Cl)cn2)CC1 [Compound 169]
< 1000 µM	Nc1cnc(OCc2ccccc2)cn1 [Compound 86]
< 200 µM	Nc1cnc(OCc2c(Cl)cccc2Cl)cn1 [Compound 110]
< 200 µM	CCN(CC)C(=O)Nc1cnc(OCc2c(Cl)cccc2Cl)cn1 [Compound 114]
< 20 µM	CC(C)(C)n1nc(-c2ccccc2)cc1NC(=O)Nc1ccc(F)c(COc2cnccn2)c1 [Compound 129]
< 200 µM	c1cc(COc2cnccn2)cc(Nc2nc3ccccc3o2)c1 [Compound 109]
< 2 µM	CC(C)(C)c1cc(NC(=O)Nc2ccc(F)c(COc3cnccn3)c2)n(-c2ccccc2)n1 [Compound 106, 1-(5-tert-Butyl-2-phenyl-2H-pyrazol-3-yl)-3-[4-fluoro-3-(pyrazin-2-yloxymethyl)-phenyl]-urea]
< 2 µM	O=C(Nc1ccc(F)c(COc2cnccn2)c1)c1nnc(-c2ccccc2)o1 [Compound 126, 5-Phenyl-[1,3,4]oxadiazole-2-carboxylic acid [4-fluoro-3-(pyrazin-2-yloxymethyl)-phenyl]-amide]
< 2 µM	Cc1cc(-n2nc(C(C)(C)C)cc2NC(=O)Nc2ccc(F)c(COc3cnccn3)c2)nc(C)n1 [Compound 157, 1-[5-tert-Butyl-2-(2,6-dimethyl-pyrimidin-4-yl)-2H-pyrazol-3-yl]-3-[4-fluoro-3-(pyrazin-2-yloxymethyl)-phenyl]-urea]
< 2 µM	O=C(Nc1ccc(F)c(COc2cnccn2)c1)Nc1nnc(CC2CC2)s1 [Compound 96, 1-(5-Cyclopropylmethyl-[1,3,4]thiadiazol-2-yl)-3-[4-fluoro-3-(pyrazin-2-yloxymethyl)-phenyl]-urea]

IC50	SMILES
< 20 µM	O=C(Nc1ccc(F)c(COc2cnccn2)c1)Nc1n[nH]cc1-c1ccccc1 [Compound 119, 1-[4-Fluoro-3-(pyrazin-2-yloxymethyl)-phenyl]-3-(4-phenyl-1H-pyrazol-3-yl)-urea]
< 1000 µM	O=C(NCCO)c1cnc(OCc2c(Cl)cccc2Cl)cn1 [Compound 112, 5-(2,6-Dichloro-benzyloxy)-pyrazine-2-carboxylic acid (2-hydroxy-ethyl)-amide]
< 200 µM	O=C(CN1CCOCC1)Nc1cnc(OCc2c(Cl)cccc2Cl)cn1 [Compound 171]
< 1000 µM	CC(C)(C)OC(=O)Nc1ccc(Cl)c(COc2cnccn2)c1 [Compound 89]
< 1000 µM	C[S+]([O-])c1nnc(NC(=O)Nc2ccc(F)c(COc3cnccn3)c2)s1 (centres unmarked) [Compound 159, 1-[4-Fluoro-3-(pyrazin-2-yloxymethyl)-phenyl]-3-(5-methanesulfinyl-[1,3,4]thiadiazol-2-yl)-urea]
< 200 µM	Cc1noc(-c2ccccc2)c1C(=O)Nc1ccc(F)c(COc2cnccn2)c1 [Compound 122, 3-Methyl-5-phenyl-isoxazole-4-carboxylic acid [4-fluoro-3-(pyrazin-2-yloxymethyl)-phenyl]-amide]
< 200 µM	O=C(Nc1ccc(F)c(COc2cnccn2)c1)Nc1nnc(-c2ccccc2)s1 [Compound 115, 1-[4-Fluoro-3-(pyrazin-2-yloxymethyl)-phenyl]-3-(5-phenyl-[1,3,4]thiadiazol-2-yl)-urea]
< 20 µM	CC(C)(C)c1cc(NC(=O)Nc2ccc(Cl)c(COc3cnccn3)c2)[nH]n1 [Compound 95]
< 20 µM	O=C(Nc1ccc(Cl)c(COc2cnccn2)c1)c1ccccc1 [Compound 92, N-[4-Chloro-3-(pyrazin-2-yloxymethyl)-phenyl]-benzamide]
< 2 µM	Cc1nc(-c2cccc(C(=O)Nc3ccc(F)c(COc4cnccn4)c3)c2)cs1 [Compound 151, N-[4-Fluoro-3-(pyrazin-2-yloxymethyl)-phenyl]-3-(2-methyl-thiazol-4-yl)-benzamide]
< 2 µM	CC(C)(C)c1cc(NC(=O)Nc2ccc(F)c(COc3cnccn3)c2)n(-c2ccncc2)n1 [Compound 160, 1-(5-tert-Butyl-2-pyridin-4-yl-2H-pyrazol-3-yl)-3-[4-fluoro-3-(pyrazin-2-yloxymethyl)-phenyl]-urea]
< 2 µM	CC(C)(C)c1cc(NC(=O)Nc2ccc(F)c(COc3cnccn3)c2)n(-c2ccc(S(C)(=O)=O)cc2)n1 [Compound 163, 1-[5-tert-Butyl-2-(4-methanesulfonyl-phenyl)-2H-pyrazol-3-yl]-3-[4-fluoro-3-(pyrazin-2-yloxymethyl)-phenyl]-urea]
< 20 µM	CC(C)(C)c1csc(NC(=O)Nc2ccc(F)c(COc3cnccn3)c2)n1 [Compound 100, 1-(4-tert-Butyl-thiazol-2-yl)-3-[4-fluoro-3-(pyrazin-2-yloxymethyl)-phenyl]-urea]
< 2 µM	O=C(Nc1ccc(F)c(COc2cnccn2)c1)c1cc(N2CCOCC2)nc(N2CCOCC2)n1 [Compound 150, 2,6-Di-morpholin-4-yl-pyrimidine-4-carboxylic acid [4-fluoro-3-(pyrazin-2-yloxymethyl)-phenyl]-amide]
< 200 µM	CSc1nnc(NC(=O)Nc2ccc(F)c(COc3cnccn3)c2)s1 [Compound 149, 1-[4-Fluoro-3-(pyrazin-2-yloxymethyl)-phenyl]-3-(5-methylsulfanyl-[1,3,4]thiadiazol-2-yl)-urea]
< 1000 µM	Nc1nccnc1OCc1cccc2ccccc12 [Compound 82]

SMILES	IC50
O=C(Nc1ccccc1)Oc1cccc(COc2cnccn2)c1 [Compound 107, Phenyl-carbamic acid 3-(pyrazin-2-yloxymethyl)-phenyl ester]	< 200 µM
